Where “and” joins values, the source holds several entries; their conditions need not be identical. Equal values may be shown once. Inconclusive results and toxic doses are left out. Rule as the data show it: active = T/C of 150% or more; inactive = T/C below 125%.
System: L1210 leukemia ip in BDF1 mice, survival T/C
Assay: NCI In Vivo Anticancer Drug Screen. Data for tumor model L1210 Leukemia (intraperitoneal) in B6D2F1 (BDF1) mice
Conditions: endpoint: mean survival time, higher = longer survival
How it was run: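 Value reflects the ratio of survival in compound-treated mice to survival in vehicle-treated controls, with both groups carrying the same transplanted tumor.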

[1] = dose: 50.0 mg/kg/injection, schedule: Q01DX001 (ip), vehicle: saline
[2] = dose: 200.0 mg/kg/injection, schedule: Q01DX001 (ip), vehicle: saline
[3] = dose: 400.0 mg/kg/injection, schedule: Q01DX001 (ip), vehicle: saline
[4] = dose: 100.0 mg/kg/injection, schedule: Q04DX003 (ip), vehicle: Klucel (hydroxypropylcellulose) (HPC)
[5] = dose: 200.0 mg/kg/injection, schedule: Q04DX003 (ip), vehicle: Klucel (hydroxypropylcellulose) (HPC)
[6] = dose: 400.0 mg/kg/injection, schedule: Q04DX003 (ip), vehicle: Klucel (hydroxypropylcellulose) (HPC)
[7] = dose: 100.0 mg/kg/injection, schedule: Q01DX001 (ip), vehicle: saline
[8] = dose: 100.0 mg/kg/injection, schedule: Q01DX009 (ip), vehicle: saline with Tween-80
[9] = dose: 200.0 mg/kg/injection, schedule: Q01DX009 (ip), vehicle: saline with Tween-80
[10] = dose: 400.0 mg/kg/injection, schedule: Q01DX009 (ip), vehicle: saline with Tween-80
[11] = dose: 100.0 mg/kg/injection, schedule: Q04DX002 (ip), vehicle: Klucel (hydroxypropylcellulose) (HPC)
[12] = dose: 100.0 mg/kg/injection, schedule: Q01DX009 (ip), vehicle: Klucel (hydroxypropylcellulose) (HPC)
[13] = dose: 200.0 mg/kg/injection, schedule: Q01DX009 (ip), vehicle: Klucel (hydroxypropylcellulose) (HPC)
[14] = dose: 100.0 mg/kg/injection, schedule: Q04DX003 (ip), vehicle: saline
[15] = dose: 200.0 mg/kg/injection, schedule: Q04DX003 (ip), vehicle: saline

Measured: T/C

CC(=O)NNC(=O)c1cnccn1
inactive: dose: 6.25 mg/kg/injection, schedule: Q04DX003 (ip), vehicle: saline 100 % of control | dose: 12.5 mg/kg/injection, schedule: Q04DX003 (ip), vehicle: saline 97 % of control | dose: 24.0 mg/kg/injection, schedule: Q04DX003 (ip), vehicle: saline 97 % of control | dose: 25.0 mg/kg/injection, schedule: Q01DX009 (ip), vehicle: water 95 % of control and 98 % of control | dose: 48.0 mg/kg/injection, schedule: Q04DX003 (ip), vehicle: saline 102 % of control | dose: 50.0 mg/kg/injection, schedule: Q01DX009 (ip), vehicle: water 97 % of control and 102 % of control | dose: 100.0 mg/kg/injection, schedule: Q01DX009 (ip), vehicle: water 112 % of control and 123 % of control | dose: 200.0 mg/kg/injection, schedule: Q01DX001 (ip), vehicle: water 103 % of control | dose: 200.0 mg/kg/injection, schedule: Q01DX009 (ip), vehicle: water 116 % of control and 118 % of control

CC(/C=N\N)=N\N
inactive: dose: 15.0 mg/kg/injection, schedule: Q01DX Z (ip), vehicle: saline 91 % of control | dose: 15.0 mg/kg/injection, schedule: Q01DX Z (oral), vehicle: saline 101 % of control | dose: 30.0 mg/kg/injection, schedule: Q01DX Z (ip), vehicle: saline 108 % of control | dose: 30.0 mg/kg/injection, schedule: Q01DX Z (oral), vehicle: saline 116 % of control | dose: 60.0 mg/kg/injection, schedule: Q01DX Z (ip), vehicle: saline 91 % of control

CCN(CC)C(C)=O
inactive: [1] 87 % of control | [2] 86 % of control | [3] 86 % of control

CCCCCCCCCCCCCCCCOc1cccc(OCc2ccccc2)c1
inactive: dose: 100.0 mg/kg/injection, schedule: Q04DX003 (ip), vehicle: DMSO 88 % of control | dose: 200.0 mg/kg/injection, schedule: Q04DX003 (ip), vehicle: DMSO 98 % of control | dose: 400.0 mg/kg/injection, schedule: Q04DX003 (ip), vehicle: DMSO 93 % of control

Cc1ccc(S(=O)(=O)N(CC(=O)O)c2cccc(Cl)c2)cc1
inactive: [4] 91 % of control | [5] 96 % of control | [6] 100 % of control

CC(=O)N(C)C(C(=O)N1CC(C)CC1C(=O)N(C)C1C(=O)NC(CC(C)C)C(=O)N2CC(C)CC2C(=O)NC(CC(C)C)C(=O)N(C)C(C(C)C)C(=O)N2CCCC2C(=O)N(C)C(CC(C)C)C(=O)NCC(=O)OC1C)C(C)C (centres undefined)
inactive: dose: 18.75 mg/kg/injection, schedule: Q01DX009 (ip), vehicle: Klucel (hydroxypropylcellulose) (HPC) 104 % of control | dose: 37.5 mg/kg/injection, schedule: Q01DX009 (ip), vehicle: Klucel (hydroxypropylcellulose) (HPC) 109 % of control | dose: 75.0 mg/kg/injection, schedule: Q01DX009 (ip), vehicle: Klucel (hydroxypropylcellulose) (HPC) 101 % of control

O=NN(c1ccccc1)c1ccc2ccccc2c1
inactive: [4] 105 % of control | [5] 110 % of control | [6] 110 % of control

Cc1cc(/C=C/c2ccccc2)nc2ccccc12
inactive: [7] 96 % of control | [2] 100 % of control | [3] 90 % of control

COc1ccc(Br)cc1/C=N/N=C/c1cc(Br)ccc1OC
inactive: [8] 89 % of control | dose: 100.0 mg/kg/injection, schedule: Q04DX003 (ip), vehicle: saline with Tween-80 111 % of control | [9] 92 % of control | dose: 200.0 mg/kg/injection, schedule: Q04DX003 (ip), vehicle: saline with Tween-80 93 % of control | [10] 94 % of control | dose: 400.0 mg/kg/injection, schedule: Q04DX003 (ip), vehicle: saline with Tween-80 95 % of control

CC(C)C1NC(=O)C2CCCN2C1=O (centres undefined)
inactive: dose: 100.0 mg/kg/injection, schedule: Q04DX003 (ip), vehicle: saline sonified 98 % of control | dose: 200.0 mg/kg/injection, schedule: Q04DX003 (ip), vehicle: saline sonified 96 % of control | dose: 400.0 mg/kg/injection, schedule: Q04DX003 (ip), vehicle: saline sonified 97 % of control

O=C1CCCN(c2ccccc2)c2ccccc21
inactive: dose: 100.0 mg/kg/injection, schedule: Q01DX009 (ip), vehicle: other 100 % of control | dose: 100.0 mg/kg/injection, schedule: Q04DX003 (ip), vehicle: other 98 % of control | dose: 200.0 mg/kg/injection, schedule: Q01DX009 (ip), vehicle: other 98 % of control | dose: 200.0 mg/kg/injection, schedule: Q04DX003 (ip), vehicle: other 109 % of control | dose: 400.0 mg/kg/injection, schedule: Q01DX009 (ip), vehicle: other 96 % of control | dose: 400.0 mg/kg/injection, schedule: Q04DX003 (ip), vehicle: other 104 % of control

CC(C)(C)C(O)(C(=O)O)C(C)(C)C
inactive: [1] 110 % of control | [7] 98 % of control | [2] 104 % of control | [3] 100 % of control

COc1ccc(C(=O)NCc2cccs2)cc1
inactive: [11] 91 % of control | dose: 200.0 mg/kg/injection, schedule: Q04DX002 (ip), vehicle: Klucel (hydroxypropylcellulose) (HPC) 102 % of control | dose: 400.0 mg/kg/injection, schedule: Q04DX002 (ip), vehicle: Klucel (hydroxypropylcellulose) (HPC) 97 % of control

CCCCCCC(C)Cl (centres undefined)
inactive: [8] 105 % of control | [9] 108 % of control | [10] 106 % of control

CC(C)COP(=O)(Cc1ccccc1)OCC(C)C
inactive: [12] 110 % of control | [13] 101 % of control

O=C1c2ccccc2C2(c3ccccc31)C(C(=O)c1ccccc1)C2C(=O)c1ccccc1 (centres undefined)
inactive: dose: 75.0 mg/kg/injection, schedule: Q01DX001 (ip), vehicle: carboxymethylcellulose (CMC) 94 % of control | dose: 150.0 mg/kg/injection, schedule: Q01DX001 (ip), vehicle: carboxymethylcellulose (CMC) 96 % of control | dose: 300.0 mg/kg/injection, schedule: Q01DX001 (ip), vehicle: carboxymethylcellulose (CMC) 91 % of control

NNC(=O)c1ccccc1Nc1ccc(Br)cc1
inactive: [12] 94 % of control | [4] 94 % of control | [13] 93 % of control | [5] 94 % of control | dose: 400.0 mg/kg/injection, schedule: Q01DX009 (ip), vehicle: Klucel (hydroxypropylcellulose) (HPC) 86 % of control | [6] 96 % of control

Nc1c(Cl)ncnc1Nc1cccc(C(F)(F)F)c1
inactive: [4] 92 % of control | [5] 97 % of control | [6] 104 % of control

CC1CC(NC(=O)CC#N)CC(C)(C)C1 (centres undefined)
inactive: dose: 50.0 mg/kg/injection, schedule: Q01DX009 (ip), vehicle: saline with Tween-80 93 % of control | [8] 90 % of control | dose: 100.0 mg/kg/injection, schedule: Q04DX002 (ip), vehicle: saline with Tween-80 94 % of control | [9] 97 % of control | dose: 200.0 mg/kg/injection, schedule: Q04DX002 (ip), vehicle: saline with Tween-80 102 % of control

N#Cc1ccc(N=C(N)N[N+](=O)[O-])cc1
inactive: dose: 25.0 mg/kg/injection, schedule: Q04DX002 (ip), vehicle: Klucel (hydroxypropylcellulose) (HPC) 96 % of control | dose: 50.0 mg/kg/injection, schedule: Q04DX002 (ip), vehicle: Klucel (hydroxypropylcellulose) (HPC) 104 % of control | [11] 104 % of control

CN(C)C(CC(=O)c1ccccc1)C(=O)O (centres undefined)
inactive: [14] 94 % of control | [15] 96 % of control

O=C(O)c1nccc2c(O)cccc12
inactive: [14] 93 % of control | [15] 102 % of control | dose: 400.0 mg/kg/injection, schedule: Q04DX003 (ip), vehicle: saline 101 % of control

Reference: PubChem BioAssay AID248 (DTP/NCI, 2004)
